Measured values: US9174973B2, “Crystalline forms of azilsartan and preparation and uses thereof” (SUNSHINE LAKE PHARMA CO., LTD., priority 2011, dated 2015)

Test: solubility test of crystalline forms in 0.1M HCl (Chinese Pharmacopoeia 2010)
Format: physicochemical
Conditions: 300 mg sample in 6 mL 0.1M HCl, 25° C.±2° C., 30 minutes, observed with eyes
Procedure: The solubility of crystalline forms A, B, C and D was measured in accordance with the solubility test described in “Chinese Pharmacopoeia 2010”, Topic and Requirement 15. A crystalline form of azilsartan was grinded into powder. The powder (300 mg) was added to 6 ml of 0.1M HCl as the solvent at 25° C.±2° C. […] The total test time was 30 minutes. The solid was deemed as dissolved when no solid was detected in the mixture by human eyes. The solubility data of crystalline forms A, B, C and D of azilsartan are as shown below.

CCOc1nc2cccc(C(=O)O)c2n1Cc1ccc(-c2ccccc2-c2noc(=O)[nH]2)cc1 [Form D]
Result (solubility): dissolved
